# Experiments:
# A549 cells = assay: Comet assay; assay type: cell-based, human; details: A549, 1, 8, and 12 h
# Experimental: Residual DNA damage was detected by alkaline single cell gel electrophoresis (Comet Assay) using the Trevigen Comet Assay Kit (Trevigen, Gaithersburg, MD, USA) following the manufacturer’s protocol with slight modifications. […] The treated cells were trypsinized and pelleted by centrifugation. The cell pellets were washed and resuspended in 2 mL of ice-cold PBS. The cell suspension was mixed 1:10 (vol/vol) with low-melting point agar at 42 °C and immediately pipetted onto a CometSlide™. Slides were incubated at 4 °C in the dark for 30 min, immersed in chilled lysis solution and incubated again at 4 °C for 30 min. Slides were placed in a horizontal electrophoresis chamber and electrophoresed with buffer NaOH (0.3 M) and EDTA (1 mM) at 1 V/cm for 15 min. Samples were dried and stained with Vista Green DNA dye (Cell Biolabs, Singapore). Comet tails were imaged using a model DM 2500 fluorescent microscope (Leica, Wetzlar, Germany) and quantified by Komet 5.5 software (Andor Technology, Belfast, UK). A minimum of 50 cells were scored per treatment. All experiments were performed independently in triplicate.
# [1] = tested on: pqs gene cluster in ΔpqsA mutant strain; assay: Effect of exogenous JH62 on transcription of the pqs gene cluster; assay type: cell-based, Pseudomonas aeruginosa; details: ΔpqsA mutant supplemented with exogenous JH62
# Excerpt: Since the pqs gene cluster is responsible for JH62 biosynthesis, we determined whether JH62 itself could regulate the expression of this cluster, potentially establishing a feedback loop. To this end, we supplemented the JH62-deficient ΔpqsA mutant with exogenous JH62 and assessed the pqs cluster transcription.
# [2] = tested on: non-cancer cells (MEF, AML12, WI-38, and THLE-2); assay: WST-1 cell viability, panel of non-cancer cells; assay type: cell-based; details: across non-cancer cells (MEF, AML12, WI-38, and THLE-2)
# Experimental: (§1) Cell viability was assessed using the WST-1 assay, based on a previously reported method with slight modifications. Briefly, cells were seeded at 1 × 10^4 cells per well in 96-well plates and then treated with different doses of JH62 or DOX for 0–72 h. The cells used included non-cancer cells (MEF, AML12, WI-38, and THLE-2) and cancer cells (A549, HEPG2, HEP3B, BxPC3, U87, DU145, MCF7, HeLa, and HCT116). The WST-1 reagent (Roche, Shanghai, China) was added to each well (10% vol/vol final concentration), followed by incubation for 3 h at 37 °C. Absorbance at OD450 was measured using a microplate reader (Synergy H1; BioTek Instruments, Winooski, VT, USA).
# [3] = tested on: HEPG2: human liver cancer cell lines; assay: WST-1 cell viability, HEPG2; assay type: cell-based; details: HEPG2 (liver) cancer cell line
# Excerpt: (§2) Different cells were utilized as follows: MEF: murine embryonic fibroblast (RRID: CVCL_L690); AML12: mouse liver cell lines (RRID: CVCL_0140); WI-38: human lung fibroblast cell lines (RRID: CVCL_0579); THLE-2: human liver epithelial cell lines (RRID: CVCL_3803); A549: human lung cancer cell lines (RRID: CVCL_0023); HEPG2: human liver cancer cell lines (RRID: CVCL_0027); HEP3B: human hepatoma cell lines (RRID: CVCL_0326); BxPC3: human pancreatic cancer cell lines (RRID: CVCL_0186); U87: human primary glioblastoma cell lines (RRID: CVCL_0022); DU145: human prostate cancer cell lines (RRID: CVCL_0105); MCF7: human breast cancer cell lines (RRID: CVCL_0031); HeLa: human cervical cancer cell lines (RRID: CVCL_0030); HCT116: human colon cancer cell lines (RRID: CVCL_0291). Cells were maintained in Dulbecco’s modified Eagle’s medium (DMEM, Gibco) supplemented with L-glutamine (Lonza) (2 mM), 10% fetal bovine serum (FBS, Hyclone), 1 × non-essential amino acids, and sodium pyruvate (1 mM). THLE-2 cells were maintained in THLE-2 Cell Complete Medium (Zhong Qiao Xin Zhou, Shanghai, China). Cells were incubated at 37 °C in a humidified incubator with 5% CO2. […]
# (§3) Cell viability was assessed using the WST-1 assay, based on a previously reported method with slight modifications. […] Absorbance at OD450 was measured using a microplate reader (Synergy H1; BioTek Instruments, Winooski, VT, USA).
# cancer cell lines = assay: WST-1 cell viability, panel of cancer cell lines; assay type: cell-based; details: Homo sapiens; across the tested cancer cell lines
# Experimental: as §1
# [4] = tested on: WI-38: human lung fibroblast cell lines; assay: WST-1 cell viability, WI-38; assay type: cell-based; details: WI-38, non-cancer cell line
# Excerpt: as §2, §3
# [5] = tested on: U87: human primary glioblastoma cell lines; assay: WST-1 cell viability, U87; assay type: cell-based; details: U87 (glioblastoma) cancer cell line
# Excerpt: as §2, §3
# [6] = tested on: A549 lung cancer cell colonies; assay: Cell colony formation assay; assay type: cell-based, human; details: compared to the control group
# Excerpt: The cell colony formation assay, an in vitro method used to evaluate the proliferative capacity of cancer cells, was employed.
# LC3B in A549 cells = assay: Immunofluorescence staining for LC3B; assay type: cell-based, human; details: A549, JH62 over 2–24 h
# Excerpt: We next investigated whether autophagy contributes to JH62-induced cell death.
# [7] = tested on: MEF: murine embryonic fibroblast; assay: WST-1 cell viability, MEF; assay type: cell-based; details: Mus musculus, non-cancer cell line
# Excerpt: as §2, §3
# [8] = tested on: HEP3B: human hepatoma cell lines; assay: WST-1 cell viability, HEP3B; assay type: cell-based; details: HEP3B (liver) cancer cell line
# Excerpt: as §2, §3
compound,measurement,setting,value
"CCCCCCCC/C=C/CCCc1cc(=O)c2ccccc2[nH]1 [JH62, E-2-(tridec-4-en-1-yl)-quinolin-4(1H)-one]",comet tail analysis,A549 cells,maintenance of DNA integrity
same,pqsH transcription,[1],unaffected
same,"transcription of pqsA, pqsB, pqsC, pqsD, and pqsE",[1],markedly upregulated
same,IC50,[2],> 25 µM
same,IC50,[3],17.2 ± 0.6 µM
same,IC50,cancer cell lines,< 20 µM
same,IC50,[4],44.1 ± 0.4 µM
same,IC50,[5],10 ± 0.2 µM
same,reduced the number of A549 lung cancer cell colonies,[6]; 6.3 μM,34%
same,reduced the number of A549 lung cancer cell colonies,[6]; 12.5 μM,71%
same,LC3B puncta (autophagosome formation),LC3B in A549 cells,progressively increased both the intensity and number of LC3B puncta
same,IC50,[7],47.2 ± 4.8 µM
same,IC50,[8],10.8 ± 0.4 µM
